For the assay, the target named is T1, human sGC α subunit and β subunit (Homo sapiens, UniProt Q02153).
T1 construct: expressed in transfected cells
T1 sequence (Q02153 1-619): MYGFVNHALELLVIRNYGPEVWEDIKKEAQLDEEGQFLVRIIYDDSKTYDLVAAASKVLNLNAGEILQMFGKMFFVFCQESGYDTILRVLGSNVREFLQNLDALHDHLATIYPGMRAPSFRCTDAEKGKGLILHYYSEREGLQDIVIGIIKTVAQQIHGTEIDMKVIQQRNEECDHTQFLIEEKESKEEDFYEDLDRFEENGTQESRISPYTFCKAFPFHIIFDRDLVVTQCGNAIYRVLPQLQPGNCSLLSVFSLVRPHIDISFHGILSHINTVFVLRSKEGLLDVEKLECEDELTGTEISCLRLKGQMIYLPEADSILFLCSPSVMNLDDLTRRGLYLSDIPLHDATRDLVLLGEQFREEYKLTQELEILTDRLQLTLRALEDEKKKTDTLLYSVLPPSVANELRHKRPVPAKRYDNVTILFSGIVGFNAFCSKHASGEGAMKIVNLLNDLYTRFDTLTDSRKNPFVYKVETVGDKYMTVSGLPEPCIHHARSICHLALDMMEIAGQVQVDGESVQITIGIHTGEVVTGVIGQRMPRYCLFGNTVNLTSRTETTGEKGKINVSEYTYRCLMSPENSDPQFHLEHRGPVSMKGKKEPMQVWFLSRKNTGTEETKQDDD
T1 sequence (Q02108 1-690 partner): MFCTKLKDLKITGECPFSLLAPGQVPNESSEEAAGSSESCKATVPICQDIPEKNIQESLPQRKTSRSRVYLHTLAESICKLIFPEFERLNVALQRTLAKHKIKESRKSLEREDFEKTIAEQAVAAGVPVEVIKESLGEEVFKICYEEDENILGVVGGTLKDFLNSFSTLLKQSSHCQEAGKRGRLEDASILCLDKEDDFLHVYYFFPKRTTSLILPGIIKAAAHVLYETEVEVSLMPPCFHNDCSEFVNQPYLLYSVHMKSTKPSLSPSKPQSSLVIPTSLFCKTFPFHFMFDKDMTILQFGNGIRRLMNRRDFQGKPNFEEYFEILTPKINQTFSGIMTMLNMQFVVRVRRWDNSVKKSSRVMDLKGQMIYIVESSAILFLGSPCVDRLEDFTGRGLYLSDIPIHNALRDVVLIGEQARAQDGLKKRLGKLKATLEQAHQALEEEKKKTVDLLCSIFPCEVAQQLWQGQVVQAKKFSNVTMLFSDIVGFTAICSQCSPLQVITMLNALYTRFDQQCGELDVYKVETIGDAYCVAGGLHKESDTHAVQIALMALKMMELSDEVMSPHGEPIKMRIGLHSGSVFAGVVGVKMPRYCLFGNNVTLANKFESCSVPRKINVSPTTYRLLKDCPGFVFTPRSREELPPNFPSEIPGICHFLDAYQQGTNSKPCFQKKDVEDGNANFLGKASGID
Kind of assay: Maximum effect of sGC activating function (Ca2+ fluorescence in CHO-K1 cells expressing human sGC and mouse CNGA2). In kind it is cell-based. The conditions noted are these: increase ratio of sGC activity vs control solution at 10 μmol/L test compound. The method, boiled down: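 CHO-K1 cells stably expressing human sGC α/β and mouse CNGA2 were FURA2-AM loaded and then treated with compound at 10 μmol/L for 10 min at RT, in buffer containing 100 μmol/L IBMX, with or without 10 μmol/L ODQ. Ca²⁺ was read as the 340/380 nm excitation ratio. Activity is the % increase over the DMSO control.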

[1] abbreviates: ODQ not contained, read-out: Emax (%) ODQ− (Heme-dependent).
Setting [2] is: with 10 μmol/L ODQ, read-out: Emax (%) ODQ+ (Heme-independent).

Each structure is given as a SMILES string. Where two headings read alike, the source gives them in different places.

Consider `O=C(O)CCCCN(CCc1ccccc1OCc1ccc(CCc2ccccc2)cc1)Cc1ccc(C(=O)O)cc1` [Cinaciguat, reference compound], for which the Emax – broadly, the maximal effect, on the per cent scale that the assay sets – at 10 µM under setting [1] is 53% and the Emax at 10 µM under setting [2] is 86%.

For the molecule `O=C(O)CCCCN(CCc1ccccc1OCc1ccc(SCc2ccccc2)cc1)C1CCCc2cc(C(=O)O)ccc21` (stereo not drawn) [Example 15, 5-{N-[2-[2-(4-Benzylsulfanylbenzyloxyl)phenyl]ethyl]-N-(4-carboxybutyl)amino}-5,6,7,8-tetrahydronaphthalene-2-carboxylic acid], the Emax at 10 µM by setting is: under setting [1], 101%; under setting [2], 99.9%.

As to `O=C(O)CCCCN(CCc1ccccc1OCc1cccc2c1CCCC2)C1CCCc2cc(C(=O)O)ccc21` (stereo not drawn) [Example 29, 5-{N-(4-Carboxybutyl)-N-[2-[2-(5,6,7,8-tetrahydronaphthalene-1-ylmethoxy)phenyl]ethyl]amino}-5,6,7,8-tetrahydronaphthalene-2-carboxylic acid], the Emax at 10 µM runs as follows: under setting [1], 141%; under setting [2], 133%.
